{"source": "patent US11426379B2", "about": "“Combination of local and systemic therapies for enhanced treatment of dermatologic conditions” (The Rockefeller University, priority 2017, dated 2022)", "origin": "cited, not measured here", "system": "rabbit skin", "conditions": "intradermal injection, presence of light, reversible with beta-carotene", "data": [{"smiles": "O=C1OC2(c3cc(I)c(O)c(I)c3Oc3c2cc(I)c(O)c3I)c2c(Cl)c(Cl)c(Cl)c(Cl)c21", "note": "[rose bengal, 4,5,6,7-tetrachloro-2′,4′,5′,7′-tetraiodofluorescein]", "values": [{"measurement": "polymorphonuclear leukocyte accumulation, histamine release and erythema", "result": "polymorphonuclear leukocyte accumulation and histamine release with accompanying increased erythema"}]}]}
